One data set has as its system LNCaP cells. Briefly: Adsorption of chelate compounds to cells (HPLC and mass spectrometry). In kind it is cell-based, human. The note with it: for Adsorption LNCaP: 50 µM chelate compound, 0, 30 and 90 minutes at 37 °C, % adsorbed relative to time zero. An excerpt: (§1) As a prerequisite for the understanding of the functional attributes of Tb-PCTMB and Eu-QCTME for diagnostics and therapeutic purposes, and for other uses, it is useful to synthesize a series of chelate compounds that contain structural elements of both PCTMB and QCTME and test these compounds for adsorption and permeability to different cell lines. The first approach was to test for adsorption to a normal cell line (HEK293) and to two epithelial cancer cell lines (LNCaP and Caco-2). The second approach, described in this example, involves testing only the compounds that adsorbed in the cancer cell lines and not in the normal cell lines for permeability. Adsorption and permeability of the compounds to epithelial cancer cell lines and a normal cell line was measured through the detection of the compound by HPLC and mass spectrometry.
(§2) Cell cultures. LNCaP cell line is a human prostate carcinoma. Cells were grown in RPMI 1640 Medium supplemented 10% FBS, 2 mM L-glutamine, glucose (2 g/L) augmented with gentamicin (50 μg/mL), penicillin/streptomycin (100 IU/mL/100 μg/mL) and amphotericin B (2.5 μg/mL). Caco-2 cell line is a human colorectal carcinoma. These cells were grown in Eagle's Minimum Essential Medium supplemented with 20% FBS, Earle's BSS, 2 mM L-glutamine, 1.0 mM sodium pyruvate, 0.1 mM nonessential amino acids augmented with gentamicin (50 μg/mL), penicillin/streptomycin (100 IU/mL/100 μg/mL), and amphotericin B (2.5 μg/mL). The human kidney transformed cells HEK293 were grown in Eagle's Minimum Essential Medium (EMEM) supplemented with 10% (v/v) heat-inactivated fetal bovine serum, sodium pyruvate, nonessential amino acids and antibiotics in a humidified 5% CO2 atmosphere at 37° C. Medium and supplements were purchased from Gibco BRL (Grand Island, N.Y.) and all cell lines were obtained from ATCC.
(§3) Detection of chelate compounds for the determination of adsorption. Cells were grown to confluence in T-150 flasks (about 2×10^7 cells). Before treating with chelate compounds, cells were rinsed twice with warm 10 mM HEPES (Gibco BRL, Grand Island N.Y.), removed from the flask, and transferred to a 50-mL conical tube and centrifuged (400×g) for 5 minutes. The resulting cells were treated with individual chelate compounds with 50 µM of chelate compounds in 10 mM HEPES, pH 7.4, 5 mM KCl, 150 mM NaCl, 0.7 mM NaH2PO4 for 0, 30, and 90 minutes at 37 ° C. After treatment, cells were pelleted by centrifugation and the resulting solution was analyzed by a combination of HPLC and mass spectrometry.

The subject of the next data set is HEK293 cells. The data set is described as above. In kind it is cell-based, human. The note with it: for Adsorption HEK293: 50 µM chelate compound, 0, 30 and 90 minutes at 37 °C, % adsorbed relative to time zero.
Source text: as §1, §2, §3

The subject of a further data set is Caco-2 cells. The data set is described as above. The conditions noted are these: for Adsorption Caco-2: 50 µM chelate compound, 0, 30 and 90 minutes at 37 °C, % adsorbed relative to time zero. It is filed as cell-based, human.
Source text: as §1, §2, §3

Data set [1] is described as follows: Solubility of chelate compounds.

As a reminder, the solubility is the dissolved amount per volume that the medium holds. The low end stands for a poorly soluble substance, the high end for a readily soluble substance.

Where two headings read alike, the source gives them in different places. Bounds are passed on as bounds.

For the molecule `COP(=O)(O)Cc1ccc2cc(C)ccc2n1` [Compound 1], in the data set with LNCaP cells, the “adsorption in carcinoma cell line LNCaP” value is reported as “did not adsorb” and the “Adsorption LNCaP” value was 0 (0 = 0-10%). Also, in the data set with HEK293 cells, the “adsorption in normal cells (HEK293)” value is given as “did not adsorb” and the “Adsorption HEK293” value is on record as 0 (0 = 0-10%). For the same molecule, in the data set with Caco-2 cells, the “adsorption in carcinoma cell line Caco-2” value was “did not adsorb” and the “Adsorption Caco-2” value is 0 (0 = 0-10%). The molecule also showed a solubility in data set [1] (<5% methanol, ethanol, or DMSO) greater than 10 mM.
For `COP(=O)(O)Cc1cccc(CP(=O)(O)OC)n1` [Compound 4, [6-(Hydroxy-methoxy-phosphorylmethyl)-pyridin-2-ylmethyl]-phosphonic acid monomethyl ester], in the data set on LNCaP cells, the “adsorption in carcinoma cell line LNCaP” value is given as “adsorbed” and the “Adsorption LNCaP” value is reported as “++ (++ = 21-40%)”. In addition, in the data set with HEK293 cells, the “adsorption in normal cells (HEK293)” value is on record as “adsorbed” and the “Adsorption HEK293” value was “++ (++ = 21-40%)”. Further, in the data set with Caco-2 cells, the “adsorption in carcinoma cell line Caco-2” value is “adsorbed” and the “Adsorption Caco-2” value was “++ (++ = 21-40%)”. This molecule had a solubility in data set [1] (<5% methanol, ethanol, or DMSO) greater than 10 mM.
Turning to `CCOP(=O)(O)Cc1cccc(CP(=O)(O)OCC)n1` [Compound 5, [6-(Hydroxy-ethoxy-phosphorylmethyl)-pyridin-2-ylmethyl]-phosphonic acid monoethyl ester], the “Adsorption LNCaP” value in the data set with LNCaP cells is “+ (+ = 11-20%)”. Also, the “Adsorption HEK293” value in the data set on HEK293 cells is listed as “+ (+ = 11-20%)”. Further, the “Adsorption Caco-2” value in the data set on Caco-2 cells is on record as 0 (0 = 0-10%). The solubility in data set [1] (<5% methanol, ethanol, or DMSO) is greater than 10 mM.
For `CCCCOP(=O)(O)Cc1cccc(CP(=O)(O)OCCCC)n1` [Compound 6, [6-(Hydroxy-butoxy-phosphorylmethyl)-pyridin-2-ylmethyl]-phosphonic acid monobutyl ester], in the data set with LNCaP cells, the “adsorption in carcinoma cell line LNCaP” value is “adsorbed” and the “Adsorption LNCaP” value is on record as “+++ (+++ = 41-60%)”. For the same molecule, in the data set with HEK293 cells, the “adsorption in normal cells (HEK293)” value was “adsorbed” and the “Adsorption HEK293” value was “+++ (+++ = 41-60%)”. In the data set on Caco-2 cells, the “adsorption in carcinoma cell line Caco-2” value is reported as “adsorbed” and the “Adsorption Caco-2” value is reported as “+++ (+++ = 41-60%)”. In data set [1] (<5% methanol, ethanol, or DMSO), this molecule showed a solubility greater than 10 mM.
Take `COP(=O)(O)Cc1cc(CP(=O)(O)OC)cc(CP(=O)(O)OC)c1` [Compound 7, [3,5-Bis-(Methoxy-hydroxy-phosphorylmethyl)-benzyl]-phosphonic acid monomethyl ester]: in the data set with LNCaP cells, the “adsorption in carcinoma cell line LNCaP” value was “did not adsorb” and the “Adsorption LNCaP” value was 0 (0 = 0-10%). In addition, in the data set on HEK293 cells, the “adsorption in normal cells (HEK293)” value was “did not adsorb” and the “Adsorption HEK293” value is 0 (0 = 0-10%). In the data set on Caco-2 cells, the “adsorption in carcinoma cell line Caco-2” value is recorded as “did not adsorb” and the “Adsorption Caco-2” value is 0 (0 = 0-10%). This molecule showed a solubility in data set [1] (<5% methanol, ethanol, or DMSO) greater than 10 mM.
In the case of `COP(=O)(O)Cc1c(C)c(CP(=O)(O)OC)c(C)c(CP(=O)(O)OC)c1C` [Compound 10, [3,5-Bis-(Methoxy-hydroxy-phosphorylmethyl)-2,4,6-trimethyl-benzyl]-phosphonic acid monomethyl ester], in the data set on LNCaP cells, the “adsorption in carcinoma cell line LNCaP” value was “did not adsorb” and the “Adsorption LNCaP” value is 0 (0 = 0-10%). For the same molecule, in the data set with HEK293 cells, the “adsorption in normal cells (HEK293)” value was “did not adsorb” and the “Adsorption HEK293” value is reported as 0 (0 = 0-10%). Besides, in the data set on Caco-2 cells, the “adsorption in carcinoma cell line Caco-2” value was “did not adsorb” and the “Adsorption Caco-2” value was 0 (0 = 0-10%). The molecule also returned a solubility in data set [1] (<5% methanol, ethanol, or DMSO) greater than 10 mM.
Regarding `CCOP(=O)(O)Cc1c(C)c(CP(=O)(O)OCC)c(C)c(CP(=O)(O)OCC)c1C` [Compound 11, [3,5-Bis-(Ethoxy-hydroxy-phosphorylmethyl)-2,4,6-trimethyl-benzyl]-phosphonic acid monoethyl ester], the “Adsorption LNCaP” value in the data set on LNCaP cells is 0 (0 = 0-10%). The “Adsorption HEK293” value in the data set with HEK293 cells is given as 0 (0 = 0-10%). For the same molecule, the “Adsorption Caco-2” value in the data set on Caco-2 cells is reported as 0 (0 = 0-10%). The solubility in data set [1] (<5% methanol, ethanol, or DMSO) is greater than 10 mM.
With `CN(C)Cc1cc(CN(C)C)cc(CN(C)C)c1` [Compound 13, (3,5-Bis-dimethylaminomethyl-benzyl)-dimethylamine], the “Adsorption LNCaP” value in the data set with LNCaP cells is 0 (0 = 0-10%). Besides, in the data set with HEK293 cells, the “Adsorption HEK293” value is recorded as 0 (0 = 0-10%). For the same molecule, in the data set on Caco-2 cells, the “Adsorption Caco-2” value is given as 0 (0 = 0-10%). Besides, in data set [1] (<5% methanol, ethanol, or DMSO), the solubility is greater than 10 mM.
In the case of `CCCCN(CCCC)Cc1cc(CN(CCCC)CCCC)cc(CN(CCCC)CCCC)c1` [Compound 15, (3,5-Bis-dibutylaminomethyl-benzyl)-dibutyl-amine], the solubility in data set [1] is less than 10 mM.
Turning to `Cc1c(CN(C)C)c(C)c(CN(C)C)c(C)c1CN(C)C` [Compound 16, (3,5-Bis-dimethylaminomethyl-2,4,6-trimethyl-benzyl)-dimethyl-amine], the “Adsorption LNCaP” value with LNCaP cells is on record as 0 (0 = 0-10%). For the same molecule, the “Adsorption HEK293” value in the data set with HEK293 cells was 0 (0 = 0-10%). In the data set with Caco-2 cells, the “Adsorption Caco-2” value is recorded as 0 (0 = 0-10%). The same molecule returned a solubility in data set [1] (<5% methanol, ethanol, or DMSO) greater than 10 mM.
In data set [1], `CCN(CC)Cc1c(C)c(CN(CC)CC)c(C)c(CN(CC)CC)c1C` [Compound 17, (3,5-Bis-diethylaminomethyl-2,4,6-trimethyl-benzyl)-diethyl-amine] returned a solubility of less than 10 mM.
With `CCCCN(CCCC)Cc1c(C)c(CN(CCCC)CCCC)c(C)c(CN(CCCC)CCCC)c1C` [Compound 18, (3,5-Bis-dibutylaminomethyl-2,4,6-trimethyl-benzyl)-dibutyl-amine], in data set [1], the solubility was less than 10 mM.
Regarding `COP(=O)(O)CNCCCN(CCCNCP(=O)(O)OC)CP(=O)(O)OC` [Compound 19, [(Bis-{3-[(hydroxy-methoxy-phosphorylmethyl)-amino]-propyl}-amino)-methyl]-phosphonic acid monomethyl ester], in the data set with LNCaP cells, the “adsorption in carcinoma cell line LNCaP” value is recorded as “adsorbed” and the “Adsorption LNCaP” value is on record as “++ (++ = 21-40%)”. Also, in the data set on HEK293 cells, the “adsorption in normal cells (HEK293)” value is listed as “adsorbed” and the “Adsorption HEK293” value is “++ (++ = 21-40%)”. Moreover, the “Adsorption Caco-2” value in the data set on Caco-2 cells is “++ (++ = 21-40%)”. Further, in the data set with Caco-2 cells (Caco-2), the “adsorption in carcinoma cell line Caco-2” value is recorded as “adsorbed”. In data set [1] (<5% methanol, ethanol, or DMSO), this molecule returned a solubility greater than 10 mM.
Consider `CCOP(=O)(O)CNCCCN(CCCNCP(=O)(O)OCC)CP(=O)(O)OCC` [Compound 20, [(Bis-{3-[(ethoxy-hydroxy-phosphorylmethyl)-amino]-propyl}-amino)-methyl]-phosphonic acid monoethyl ester], for which, in the data set on LNCaP cells, the “adsorption in carcinoma cell line LNCaP” value is listed as “adsorbed” and the “Adsorption LNCaP” value is given as “++ (++ = 21-40%)”. In the data set on HEK293 cells, the “adsorption in normal cells (HEK293)” value is “adsorbed” and the “Adsorption HEK293” value was “++ (++ = 21-40%)”. In the data set on Caco-2 cells, the “Adsorption Caco-2” value is “++ (++ = 21-40%)”. In the data set with Caco-2 cells (Caco-2), the “adsorption in carcinoma cell line Caco-2” value is listed as “adsorbed”. Further, the solubility in data set [1] (<5% methanol, ethanol, or DMSO) was greater than 10 mM.
As for `CCN(CC)CCCN(CC)CCCN(CC)CC` [Compound 23, N-(3-Diethylamino-propyl)-N,N′,N′-triethyl-propane-1,3-diamine], in the data set with LNCaP cells, the “adsorption in carcinoma cell line LNCaP” value was “adsorbed” and the “Adsorption LNCaP” value is reported as “+ (+ = 11-20%)”. Besides, in the data set with HEK293 cells, the “adsorption in normal cells (HEK293)” value is on record as “adsorbed” and the “Adsorption HEK293” value is on record as “+ (+ = 11-20%)”. Besides, in the data set on Caco-2 cells, the “adsorption in carcinoma cell line Caco-2” value is “adsorbed” and the “Adsorption Caco-2” value is reported as “++ (++ = 21-40%)”. In data set [1] (<5% methanol, ethanol, or DMSO), this molecule gave a solubility greater than 10 mM.

Source of the values: US20060210479A1 (Dow Global Technologies Inc., priority 2004, published 2006).
